Measurements taken from patent US7410975B2, “Small molecule toll-like receptor (TLR) antagonists” (Coley Pharmaceutical Group, Inc., priority 2003, dated 2008).
Where a name gives a salt, the structure may show the parent alone.

Biological target: T1, human TLR7 (hTLR7) (Homo sapiens, UniProt Q9NYK1)
T1 construct: expressed in transfected cells
T1 sequence (Q9NYK1 27-1049): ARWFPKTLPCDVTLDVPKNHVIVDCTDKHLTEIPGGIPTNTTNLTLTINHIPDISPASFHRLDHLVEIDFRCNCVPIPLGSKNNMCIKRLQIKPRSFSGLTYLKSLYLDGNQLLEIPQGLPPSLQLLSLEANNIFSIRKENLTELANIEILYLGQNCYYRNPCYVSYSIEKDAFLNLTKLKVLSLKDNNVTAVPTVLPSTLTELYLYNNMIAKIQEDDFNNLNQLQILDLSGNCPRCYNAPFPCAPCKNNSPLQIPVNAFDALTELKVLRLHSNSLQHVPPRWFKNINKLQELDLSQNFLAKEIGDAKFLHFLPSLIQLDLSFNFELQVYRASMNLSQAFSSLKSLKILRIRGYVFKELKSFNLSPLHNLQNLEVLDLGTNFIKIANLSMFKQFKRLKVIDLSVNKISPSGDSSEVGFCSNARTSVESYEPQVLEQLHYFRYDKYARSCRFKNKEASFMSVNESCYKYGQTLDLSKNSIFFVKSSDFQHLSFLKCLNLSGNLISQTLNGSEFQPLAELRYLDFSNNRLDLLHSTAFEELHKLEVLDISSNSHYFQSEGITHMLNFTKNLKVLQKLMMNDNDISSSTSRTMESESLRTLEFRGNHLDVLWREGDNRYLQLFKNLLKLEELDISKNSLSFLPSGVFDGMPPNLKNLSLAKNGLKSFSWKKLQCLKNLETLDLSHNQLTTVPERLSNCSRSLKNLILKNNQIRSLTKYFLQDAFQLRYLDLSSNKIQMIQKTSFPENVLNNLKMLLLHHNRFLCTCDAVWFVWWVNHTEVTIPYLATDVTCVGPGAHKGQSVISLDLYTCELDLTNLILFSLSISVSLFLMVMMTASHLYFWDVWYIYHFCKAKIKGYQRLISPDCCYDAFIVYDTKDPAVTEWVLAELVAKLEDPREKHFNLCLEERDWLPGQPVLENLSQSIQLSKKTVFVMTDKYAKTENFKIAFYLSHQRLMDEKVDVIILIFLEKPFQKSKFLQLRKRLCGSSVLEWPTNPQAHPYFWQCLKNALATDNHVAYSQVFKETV
Experiment: Antagonist screen, hTLR7-NFκB-293 cells, NF-κB-luciferase reporter, with EC50 of R848
Assay type: cell-based
Conditions: for hTLR7 (inhibitory effect, antagonist score): compound at 0.5, 5, 50 μg/ml, EC50 concentration of R848, 16 h, NF-κB-luciferase; for hTLR7 (inhibitory effect): hTLR7-NFκB-293 cells, with EC50 of R848, compound at 0.5, 5 and 50 μg/ml

SMILES | hTLR7 (inhibitory effect, antagonist score) | hTLR7 (inhibitory effect)
CN1CCc2cccc3c2[C@H]1Cc1ccc(O)c(O)c1-3.Cl [compound 101, Apomorphinehydrochloride (R, —)] | — (compounds for which there was no clear down regulation even at 50 μg/ml) | –
CC(C)(C)c1ccc(C(O)CCCN2CCC(C(O)(c3ccccc3)c3ccccc3)CC2)cc1 (stereo not shown) [compound 138, Terfenadine] | 11 (compounds for which there was clear down regulation only at 50 μg/ml) | –
CN(C)C(=O)C(CCN1CCC(O)(c2ccc(Cl)cc2)CC1)(c1ccccc1)c1ccccc1 [compound 144, Loperamidehydrochloride] | 11 (compounds for which there was clear down regulation only at 50 μg/ml) | –
COc1cc2cc3c4cc(OC)c(OC)cc4cc[n+]3c(C)c2cc1OC [compound 431, Coralyne chloridehydrate] | – | — (compounds for which there was no clear down regulation even at 50 μg/ml)
COc1ccc(Cc2nccc3cc(OC)c(OC)cc23)cc1OC.Cl [compound 583, Papaverinehydrochloride] | – | 11 (compounds for which there was clear down regulation only at 50 μg/ml)
COc1ccc2cc3[n+](cc2c1OC)CCc1cc2c(cc1-3)OCO2.[Cl-] [compound 586, Berberine chloride] | – | — (compounds for which there was no clear down regulation even at 50 μg/ml)
COc1cc2c(cc1O)C[C@H]1c3c(cc(O)c(OC)c3-2)CCN1C [compound 600, Boldine] | — (compounds for which there was no clear down regulation even at 50 μg/ml) | –
CN1CCc2cc3c(c4c2C1Cc1ccccc1-4)OCO3.Cl (stereo not shown) [compound 669, Remerine hydrochloride] | 11 (compounds for which there was clear down regulation only at 50 μg/ml) | –
COc1cc2nc(N3CCN(C(=O)C4CCCO4)CC3)nc(N)c2cc1OC.Cl (stereo not shown) [compound 751, Terazosin hydrochloride] | — (compounds for which there was no clear down regulation even at 50 μg/ml) | –
CC[N+](C)(CC)CCC[n+]1c(-c2ccccc2)c2cc(N)ccc2c2ccc(N)cc21.[I-].[I-] [compound 792, Propidium iodide] | – | — (compounds for which there was no clear down regulation even at 50 μg/ml)
CN(C)CCN(Cc1ccc(Cl)cc1)c1ccccn1.Cl [compound 807, Chloro-pyraminehydrochloride] | – | — (compounds for which there was no clear down regulation even at 50 μg/ml)
CCOc1ccc(Cc2nccc3cc(OCC)c(OCC)cc23)cc1OCC.Cl [compound 830, Ethaverinehydrochloride] | – | 11 (compounds for which there was clear down regulation only at 50 μg/ml)
COc1cc2nc(N3CCN(C(=O)C4COc5ccccc5O4)CC3)nc(N)c2cc1OC.CS(=O)(=O)O (stereo not shown) [compound 858, Doxazosin mesylate] | — (compounds for which there was no clear down regulation even at 50 μg/ml) | –
O=c1c2c(nc(NCCO)n1-c1ccccc1)-c1ccccc1CC21CCCC1 [compound 891] | – | 11 (compounds for which there was clear down regulation only at 50 μg/ml)
O=c1c2c(nc(NCCO)n1Cc1ccccc1)-c1ccccc1CC21CCCC1 [compound 926] | – | 11 (compounds for which there was clear down regulation only at 50 μg/ml)
CN1CCc2c1nc1ccccc1c2N [compound 990, 1-Methyl-2,3-dihydro-1H-pyrrolo[2,3-b]quinolin-4-ylamine] | – | — (compounds for which there was no clear down regulation even at 50 μg/ml)
CN1CCc2c1nc1ccccc1c2NC(=O)CN1CCCCCC1 [compound 1003] | – | 11 (compounds for which there was clear down regulation only at 50 μg/ml)

SMILES | hTLR7 (inhibitory effect, antagonist score) | hTLR7 (inhibitory effect)
Cc1ccc2nc3c(c(N)c2c1)CCN3C [compound 1091, 1,6-Dimethyl-2,3-dihydro-1H-pyrrolo[2,3-b]quinolin-4-ylamine] | – | 11 (compounds for which there was clear down regulation only at 50 μg/ml)
Cc1ccc(-n2c(NCCO)nc3c(c2=O)C2(CCCCC2)Cc2ccccc2-3)cc1 [compound 1137] | – | 12 (compounds for which there was clear down regulation at 5 μg/ml and 50 μg/ml)
CN1CCc2c1nc1ccc(Br)cc1c2N [compound 1142, 6-Bromo-1-methyl-2,3-dihydro-1H-pyrrolo[2,3-b]quinolin-4-ylamine] | – | 11 (compounds for which there was clear down regulation only at 50 μg/ml)
O=C1c2ccc(S(=O)(=O)c3ccc4c(c3)C(=O)N(c3ccccn3)C4=O)cc2C(=O)N1c1ccccn1 [compound 1163] | – | 11 (compounds for which there was clear down regulation only at 50 μg/ml)
CN1CCCCc2c1nc1ccccc1c2N [compound 1185, 1-Methyl-2,3,4,5-tetrahydro-1H-azepino[2,3-b]quinolin-6-ylamine] | – | — (compounds for which there was no clear down regulation even at 50 μg/ml)
CN1CCc2c1nc1ccccc1c2NC(=O)CN1CCN(c2ccccc2)CC1 [compound 1212] | – | 11 (compounds for which there was clear down regulation only at 50 μg/ml)
Cn1c(NN)nc2c(c1=O)C1(CCCC1)Cc1ccccc1-2 [compound 1213] | – | 11 (compounds for which there was clear down regulation only at 50 μg/ml)
Nc1c2c(nc3ccccc13)N(Cc1ccccc1)CC2 [compound 1217, 1-Benzyl-2,3-dihydro-1H-pyrrolo[2,3-b]quinolin-4-ylamine] | – | 13 (compounds for which there was clear down regulation at 0.5 μg/ml, 5 μg/ml, and 50 μg/ml)
CCCCCCN(CCCCCC)CC(=O)Nc1c2c(nc3ccccc13)N(C)CC2 [compound 1224] | – | 12 (compounds for which there was clear down regulation at 5 μg/ml and 50 μg/ml)
O=C(CN1CCCC1)Nc1c2c(nc3ccccc13)N(c1ccccc1)CC2 [compound 1244] | – | 11 (compounds for which there was clear down regulation only at 50 μg/ml)
NNc1nc2c(c(=O)n1C1CCCC1)C1(CCCC1)Cc1ccccc1-2 [compound 1248] | – | 11 (compounds for which there was clear down regulation only at 50 μg/ml)
NNc1nc2c(c(=O)n1-c1ccccc1)C1(CCCC1)Cc1ccccc1-2 [compound 1320] | – | — (compounds for which there was no clear down regulation even at 50 μg/ml)
O=c1[nH]c(NCCO)nc2c1C1(CCCC1)Cc1ccccc1-2 [compound 1322] | – | 11 (compounds for which there was clear down regulation only at 50 μg/ml)
CCCCCCCCCCCC(=O)Nc1c2c(nc3ccccc13)N(C)CC2 [compound 1334] | – | — (compounds for which there was no clear down regulation even at 50 μg/ml)
O=C1c2ccc(Oc3ccc(S(=O)(=O)c4ccc(Oc5ccc6c(c5)C(=O)N(c5ccccn5)C6=O)cc4)cc3)cc2C(=O)N1c1ccccn1 [compound 1367] | – | 11 (compounds for which there was clear down regulation only at 50 μg/ml)
CCN(CC)CCCC(C)Nc1nc(/C=C/c2ccc(Cl)cc2)nc2cc3ccccc3cc12 (stereo not shown) [compound 2000] | 13 (compounds for which there was clear down regulation at 0.5 μg/ml, 5 μg/ml, and 50 μg/ml) | –
CCN(CC)CCCNc1nc(-c2ccccc2)nc2ccccc12 [compound 2001] | 11 (compounds for which there was clear down regulation only at 50 μg/ml) | –
